Patent US6730667B2, “Iontophoresis disc pain blocker” (priority 2001, dated 2004)

System: overactive nerve fibers
Assay: Iontophoretic delivery, practical patient experience
Type: in vivo, human
Conditions: ketamine at 2 to 4% or higher, clonidine at 0.2 to 0.4%, unbuffered; positive polarity
Procedure: Once the desired nerve or nerves are identified, a preselected composition of pharmaceuticals 14 is prepared for an administration step 16. Administration may be topical, by methods including gel 18 or spray 20. Iontophoresis is a preferred method. The composition is applied to a patch 22 for iontophoretic administration. Suitable patch structures include both single and multi-layered gel matrix discs. For example, a patch may be arranged with one or more layers of pH buffered electrolytes between drug layers. Ionotphoresis 24 delivers the drugs by application of tiny unipolar or switchable bipolar micro amperage current to the gel disc over the next 24 to 36 plus hours, producing blockade to the excessive nerve firing.
These are ketamine, which is an NMDA receptor blocker, at 2 to 4% or higher, and clonidine, which is an […], at 0.2 to 0.4% concentration, unbuffered. Both have positive polarity, and are positive charged. Selection of positive polarity would push the drug along the pathway of least resistance, finding the involved overactive nerve fibers; and pain blockade would occur.

Row | SMILES | suitability for delivery by iontophoresis
1 | Clc1cccc(Cl)c1N=C1NCCN1 [clonidine] | work well
2 | CNC1(c2ccccc2Cl)CCCCC1=O (centres unmarked) [ketamine] | work well
